PMC12136037, “Type II kinase inhibitors that target Parkinson’s disease–associated LRRK2” (Science Advances, 2025)
Read-outs that look alike come from different tables or passages of the source.

What was measured:
Test in all cases: DSF 100 kinase selectivity screen;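 as to dTm: compound tested at 20 µM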
Format in all cases: binding
[1] = target: T1, ~100 representative kinases (Homo sapiens, UniProt O15075); settings: Protein DCAMKL1; average of three replicates
T1 construct: Recombinant protein kinase domains with a concentration of 2 μM
T1 sequence (O15075 whole entry, the tested form may be a part): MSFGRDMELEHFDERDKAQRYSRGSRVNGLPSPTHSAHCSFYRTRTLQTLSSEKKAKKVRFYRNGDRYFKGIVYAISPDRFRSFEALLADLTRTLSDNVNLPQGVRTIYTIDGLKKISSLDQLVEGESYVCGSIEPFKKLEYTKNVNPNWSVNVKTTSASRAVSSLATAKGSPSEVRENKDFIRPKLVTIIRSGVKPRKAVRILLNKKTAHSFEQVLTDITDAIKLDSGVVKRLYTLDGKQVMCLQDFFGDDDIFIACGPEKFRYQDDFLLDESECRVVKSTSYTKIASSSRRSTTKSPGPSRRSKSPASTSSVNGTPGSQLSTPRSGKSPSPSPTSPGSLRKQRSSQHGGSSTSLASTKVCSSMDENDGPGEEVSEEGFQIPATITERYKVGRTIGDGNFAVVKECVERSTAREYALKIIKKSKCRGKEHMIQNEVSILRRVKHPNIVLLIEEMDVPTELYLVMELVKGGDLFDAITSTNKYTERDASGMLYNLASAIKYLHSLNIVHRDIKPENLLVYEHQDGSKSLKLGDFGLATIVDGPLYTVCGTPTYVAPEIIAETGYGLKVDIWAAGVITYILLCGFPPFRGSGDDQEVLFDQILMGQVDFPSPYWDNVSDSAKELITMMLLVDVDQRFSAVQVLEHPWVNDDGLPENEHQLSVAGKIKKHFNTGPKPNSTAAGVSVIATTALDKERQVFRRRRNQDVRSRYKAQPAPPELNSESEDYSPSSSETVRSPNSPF
How it was run: (§1)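 Each kinase domain, at 2 μM, is mixed with 20 μM test compound and SYPRO Orange in Hepes (20 mM, pH 7.5) with 500 mM NaCl. Temperature is then raised at 3°C/min and fluorescence-monitored unfolding yields the melting temperature change, ΔTm in degrees Celsius.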

[2] = target: T2, ~100 representative kinases (Homo sapiens, UniProt O43293); settings: Protein DAPK3; average of three replicates
T2 construct: Recombinant protein kinase domains with a concentration of 2 μM
How it was run: as §1

[3] = target: T3, ~100 representative kinases (Homo sapiens, UniProt O94768); settings: Protein STK17B; DSF; average of three replicates
T3 construct: Recombinant protein kinase domains with a concentration of 2 μM
T3 sequence (O94768 1-372): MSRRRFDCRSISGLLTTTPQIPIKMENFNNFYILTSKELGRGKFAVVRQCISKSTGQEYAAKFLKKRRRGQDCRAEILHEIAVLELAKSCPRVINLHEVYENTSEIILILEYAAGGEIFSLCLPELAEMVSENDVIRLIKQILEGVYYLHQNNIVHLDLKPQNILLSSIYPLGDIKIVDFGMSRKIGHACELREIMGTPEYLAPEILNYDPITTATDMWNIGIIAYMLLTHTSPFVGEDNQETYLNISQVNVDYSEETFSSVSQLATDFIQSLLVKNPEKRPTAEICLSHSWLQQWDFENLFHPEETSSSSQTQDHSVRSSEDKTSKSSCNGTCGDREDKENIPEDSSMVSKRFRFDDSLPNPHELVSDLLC
How it was run: as §1

[4] = target: T4, ~100 representative kinases (Homo sapiens, UniProt O95747); settings: protein OSR1; average of three replicates
T4 construct: Recombinant protein kinase domains with a concentration of 2 μM
T4 sequence (O95747 whole entry, the tested form may be a part): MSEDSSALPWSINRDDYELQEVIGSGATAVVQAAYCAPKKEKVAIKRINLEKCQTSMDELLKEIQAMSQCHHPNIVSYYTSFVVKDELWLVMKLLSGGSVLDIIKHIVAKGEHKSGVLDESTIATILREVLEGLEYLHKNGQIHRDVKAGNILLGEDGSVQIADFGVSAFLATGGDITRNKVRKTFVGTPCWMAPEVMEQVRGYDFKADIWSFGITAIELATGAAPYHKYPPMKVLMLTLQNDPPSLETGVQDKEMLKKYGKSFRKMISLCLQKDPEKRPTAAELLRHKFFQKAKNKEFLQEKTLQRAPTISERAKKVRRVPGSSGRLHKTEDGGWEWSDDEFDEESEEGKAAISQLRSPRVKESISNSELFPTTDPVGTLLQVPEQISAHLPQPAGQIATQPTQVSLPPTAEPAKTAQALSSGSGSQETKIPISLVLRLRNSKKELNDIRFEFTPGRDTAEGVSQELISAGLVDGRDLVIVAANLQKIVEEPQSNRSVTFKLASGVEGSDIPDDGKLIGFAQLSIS
How it was run: as §1

[5] = target: T5, ~100 representative kinases (Homo sapiens, UniProt P07332); settings: protein FESA; average of three replicates
T5 construct: Recombinant protein kinase domains with a concentration of 2 μM
T5 sequence (P07332 whole entry, the tested form may be a part): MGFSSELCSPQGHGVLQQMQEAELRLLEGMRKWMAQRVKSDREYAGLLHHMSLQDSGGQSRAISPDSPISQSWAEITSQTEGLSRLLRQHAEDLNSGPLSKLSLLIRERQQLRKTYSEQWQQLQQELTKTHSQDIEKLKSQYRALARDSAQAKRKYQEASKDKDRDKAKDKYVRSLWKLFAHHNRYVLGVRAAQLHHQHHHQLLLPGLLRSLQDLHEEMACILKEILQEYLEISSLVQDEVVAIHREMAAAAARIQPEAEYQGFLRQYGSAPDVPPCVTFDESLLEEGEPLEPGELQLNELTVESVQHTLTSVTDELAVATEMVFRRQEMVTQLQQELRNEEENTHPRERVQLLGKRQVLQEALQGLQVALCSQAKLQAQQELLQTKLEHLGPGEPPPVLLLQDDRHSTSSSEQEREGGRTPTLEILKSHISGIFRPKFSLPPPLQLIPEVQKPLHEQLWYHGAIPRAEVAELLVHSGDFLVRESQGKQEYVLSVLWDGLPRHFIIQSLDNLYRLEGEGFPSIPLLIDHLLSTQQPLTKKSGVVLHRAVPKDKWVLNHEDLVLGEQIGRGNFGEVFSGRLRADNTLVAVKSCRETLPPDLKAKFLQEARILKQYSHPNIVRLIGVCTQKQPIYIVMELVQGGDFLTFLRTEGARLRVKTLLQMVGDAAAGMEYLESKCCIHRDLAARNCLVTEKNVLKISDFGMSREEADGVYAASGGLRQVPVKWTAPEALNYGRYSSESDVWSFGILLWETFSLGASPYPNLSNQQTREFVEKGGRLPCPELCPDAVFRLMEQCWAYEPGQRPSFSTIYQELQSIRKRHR
How it was run: as §1

[6] = target: T6, ~100 representative kinases (Homo sapiens, UniProt P28482); settings: protein MAPK1; average of three replicates
T6 construct: Recombinant protein kinase domains with a concentration of 2 μM
How it was run: as §1

[7] = target: T7, ~100 representative kinases (Homo sapiens, UniProt P49759); settings: Protein CLK1; average of three replicates
T7 construct: Recombinant protein kinase domains with a concentration of 2 μM
How it was run: as §1

[8] = target: T8, ~100 representative kinases (Homo sapiens, UniProt P49761); settings: Protein CLK3; average of three replicates
T8 construct: Recombinant protein kinase domains with a concentration of 2 μM
How it was run: as §1

[9] = target: T9, ~100 representative kinases (Homo sapiens, UniProt P54764); settings: Protein EPHA4; average of three replicates
T9 construct: Recombinant protein kinase domains with a concentration of 2 μM
T9 sequence (P54764 20-986): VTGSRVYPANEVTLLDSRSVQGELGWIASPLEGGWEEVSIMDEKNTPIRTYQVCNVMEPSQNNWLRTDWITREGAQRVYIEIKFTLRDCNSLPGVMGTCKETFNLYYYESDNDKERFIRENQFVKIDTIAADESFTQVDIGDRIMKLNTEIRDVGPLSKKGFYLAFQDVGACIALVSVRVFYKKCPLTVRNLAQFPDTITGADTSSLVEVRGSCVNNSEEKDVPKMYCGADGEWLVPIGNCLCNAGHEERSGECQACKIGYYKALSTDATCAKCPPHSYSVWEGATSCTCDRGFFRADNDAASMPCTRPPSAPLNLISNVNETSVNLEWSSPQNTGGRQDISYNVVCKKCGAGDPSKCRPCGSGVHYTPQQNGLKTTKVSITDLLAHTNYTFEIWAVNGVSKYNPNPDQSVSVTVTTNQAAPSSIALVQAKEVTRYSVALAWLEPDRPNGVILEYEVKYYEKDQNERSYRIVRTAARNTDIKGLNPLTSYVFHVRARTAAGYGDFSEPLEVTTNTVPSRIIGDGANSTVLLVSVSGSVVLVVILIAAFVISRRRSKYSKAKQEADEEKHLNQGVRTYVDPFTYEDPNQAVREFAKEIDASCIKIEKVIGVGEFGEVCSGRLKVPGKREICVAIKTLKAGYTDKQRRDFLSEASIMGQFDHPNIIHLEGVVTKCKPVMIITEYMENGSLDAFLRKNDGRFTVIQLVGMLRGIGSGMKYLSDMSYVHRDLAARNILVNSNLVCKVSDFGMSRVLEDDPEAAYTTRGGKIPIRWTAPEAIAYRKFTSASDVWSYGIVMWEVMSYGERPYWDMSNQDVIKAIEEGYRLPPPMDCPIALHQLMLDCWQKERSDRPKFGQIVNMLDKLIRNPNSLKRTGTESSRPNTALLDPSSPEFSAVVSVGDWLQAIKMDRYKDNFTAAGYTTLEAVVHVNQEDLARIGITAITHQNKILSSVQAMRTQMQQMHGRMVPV
How it was run: as §1

[10] = target: T10, ~100 representative kinases (Homo sapiens, UniProt Q13188); settings: Protein STK3; DSF; average of three replicates
T10 construct: Recombinant protein kinase domains with a concentration of 2 μM
T10 sequence (Q13188 1-491): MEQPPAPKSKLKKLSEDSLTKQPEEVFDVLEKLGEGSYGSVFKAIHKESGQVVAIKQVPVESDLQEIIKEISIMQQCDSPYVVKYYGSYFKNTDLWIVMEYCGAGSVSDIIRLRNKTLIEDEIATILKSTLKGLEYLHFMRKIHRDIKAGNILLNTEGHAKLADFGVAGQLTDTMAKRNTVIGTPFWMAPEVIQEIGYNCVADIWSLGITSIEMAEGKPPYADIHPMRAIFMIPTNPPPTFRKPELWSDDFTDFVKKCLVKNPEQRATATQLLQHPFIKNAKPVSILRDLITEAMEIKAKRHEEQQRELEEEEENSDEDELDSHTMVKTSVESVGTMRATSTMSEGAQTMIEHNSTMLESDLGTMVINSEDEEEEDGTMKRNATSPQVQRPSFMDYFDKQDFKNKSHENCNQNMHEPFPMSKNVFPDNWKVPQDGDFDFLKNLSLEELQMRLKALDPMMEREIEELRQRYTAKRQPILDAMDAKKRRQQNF
How it was run: as §1

[11] = target: T11, ~100 representative kinases (Homo sapiens, UniProt Q86V86); settings: protein PIM3; average of three replicates
T11 construct: Recombinant protein kinase domains with a concentration of 2 μM
How it was run: as §1

[12] = target: T12, ~100 representative kinases (Homo sapiens, UniProt Q96SB4); settings: Protein SRPK1; DSF; average of three replicates
T12 construct: Recombinant protein kinase domains with a concentration of 2 μM
T12 sequence (Q96SB4 whole entry, the tested form may be a part): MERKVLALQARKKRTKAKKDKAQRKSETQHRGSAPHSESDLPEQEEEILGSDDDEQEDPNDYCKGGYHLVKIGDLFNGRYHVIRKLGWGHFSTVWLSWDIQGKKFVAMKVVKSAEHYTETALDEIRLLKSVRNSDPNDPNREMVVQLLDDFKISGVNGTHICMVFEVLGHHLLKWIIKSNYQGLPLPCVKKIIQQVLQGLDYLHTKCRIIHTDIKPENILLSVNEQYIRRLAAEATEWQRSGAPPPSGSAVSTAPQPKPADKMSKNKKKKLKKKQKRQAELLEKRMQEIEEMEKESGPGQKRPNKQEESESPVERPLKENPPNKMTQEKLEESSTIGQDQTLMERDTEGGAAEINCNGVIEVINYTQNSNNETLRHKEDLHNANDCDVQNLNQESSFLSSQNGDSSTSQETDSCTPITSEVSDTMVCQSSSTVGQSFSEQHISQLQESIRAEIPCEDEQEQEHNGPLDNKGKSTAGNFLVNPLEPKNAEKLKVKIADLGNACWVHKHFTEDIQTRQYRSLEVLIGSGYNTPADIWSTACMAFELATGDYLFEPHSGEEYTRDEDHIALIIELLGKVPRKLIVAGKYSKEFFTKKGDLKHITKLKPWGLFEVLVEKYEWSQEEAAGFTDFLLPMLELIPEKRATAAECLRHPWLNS
How it was run: as §1

[13] = target: T13, ~100 representative kinases (Homo sapiens, UniProt Q99986); settings: Protein VRK1; DSF; average of three replicates
T13 construct: Recombinant protein kinase domains with a concentration of 2 μM
T13 sequence (Q99986 1-396): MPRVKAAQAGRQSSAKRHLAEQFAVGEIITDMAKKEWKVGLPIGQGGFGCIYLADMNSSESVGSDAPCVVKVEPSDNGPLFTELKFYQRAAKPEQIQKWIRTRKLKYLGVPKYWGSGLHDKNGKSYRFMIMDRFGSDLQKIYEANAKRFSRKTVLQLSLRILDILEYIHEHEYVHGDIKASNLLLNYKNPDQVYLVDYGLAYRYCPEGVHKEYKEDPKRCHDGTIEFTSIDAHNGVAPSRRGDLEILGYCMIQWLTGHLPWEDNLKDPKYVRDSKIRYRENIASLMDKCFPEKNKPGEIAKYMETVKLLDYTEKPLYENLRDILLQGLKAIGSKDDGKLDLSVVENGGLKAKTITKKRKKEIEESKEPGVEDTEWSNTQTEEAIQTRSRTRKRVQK
How it was run: as §1

[14] = target: T14, ~100 representative kinases (Homo sapiens, UniProt Q9UEW8); settings: Protein STK39; DSF; average of three replicates
T14 construct: Recombinant protein kinase domains with a concentration of 2 μM
How it was run: as §1

[15] = target: T15, ~100 representative kinases (Homo sapiens, UniProt Q9Y243); settings: Protein AKT3; average of three replicates
T15 construct: Recombinant protein kinase domains with a concentration of 2 μM
T15 sequence (Q9Y243 whole entry, the tested form may be a part): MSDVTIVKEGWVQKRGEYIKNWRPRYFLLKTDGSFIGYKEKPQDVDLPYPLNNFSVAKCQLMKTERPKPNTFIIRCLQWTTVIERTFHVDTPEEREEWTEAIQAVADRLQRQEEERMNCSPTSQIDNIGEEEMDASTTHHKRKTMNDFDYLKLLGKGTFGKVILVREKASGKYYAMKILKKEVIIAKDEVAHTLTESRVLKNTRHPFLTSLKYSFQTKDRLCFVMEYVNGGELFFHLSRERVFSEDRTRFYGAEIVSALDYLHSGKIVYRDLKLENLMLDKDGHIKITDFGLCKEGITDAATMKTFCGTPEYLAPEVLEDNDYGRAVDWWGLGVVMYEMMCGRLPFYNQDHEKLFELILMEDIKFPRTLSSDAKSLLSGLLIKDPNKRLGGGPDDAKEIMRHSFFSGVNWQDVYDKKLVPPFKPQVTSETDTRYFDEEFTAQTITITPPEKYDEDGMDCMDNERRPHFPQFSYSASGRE
How it was run: as §1

[16] = target: T16, ~100 representative kinases (Homo sapiens, UniProt Q9Y6E0); settings: protein MST3; average of three replicates
T16 construct: Recombinant protein kinase domains with a concentration of 2 μM
T16 sequence (Q9Y6E0 whole entry, the tested form may be a part): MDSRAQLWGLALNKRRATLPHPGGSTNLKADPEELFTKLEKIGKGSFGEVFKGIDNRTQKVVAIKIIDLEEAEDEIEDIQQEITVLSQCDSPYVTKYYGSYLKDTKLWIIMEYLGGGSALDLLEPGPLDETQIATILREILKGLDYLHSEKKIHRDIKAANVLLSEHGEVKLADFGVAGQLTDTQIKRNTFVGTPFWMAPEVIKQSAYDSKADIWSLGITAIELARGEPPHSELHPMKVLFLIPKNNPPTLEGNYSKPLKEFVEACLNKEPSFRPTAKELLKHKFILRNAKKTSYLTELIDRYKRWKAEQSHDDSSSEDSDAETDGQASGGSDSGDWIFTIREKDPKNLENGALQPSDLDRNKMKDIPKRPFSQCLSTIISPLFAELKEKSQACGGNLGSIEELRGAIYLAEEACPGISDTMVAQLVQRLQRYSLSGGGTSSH
How it was run: as §1

[17] = test system: ~100 representative kinases; settings: for dTm: Protein BRD, average of three replicates
How it was run: as §1

[18] = number of kinases with thermal shift >5 K divided by total number of kinases screened
[19] = number of proteins of the DSF panel with dTm >5K
[20] = selectivity score: # >5K divided by # of proteins tested in the DSF panel

Row | dTm [1] [K] | dTm [2] [K] | dTm [3] [K] | dTm [4] [K] | dTm [5] [K] | dTm [6] [K] | dTm [7] [K] | dTm [8] [K] | dTm [9] [K] | dTm [10] [K] | dTm [11] [K] | dTm [12] [K] | dTm [13] [K] | dTm [14] [K] | dTm [15] [K] | dTm [16] [K] | dTm [17] [K] | S(5K) [17, 18] | # >5K [17, 19] | S(5K) [17, 20] | Structure (SMILES) | also measured
1 | -0.0556 | 0.53 | 0.19 | 1.78 | 3.82 | 0.68 | 8.76 | 4.76 | 4.12 | 10.52 | 2.19 | 15.50 | -0.0464 | 3.69 | -0.0373 | 3.57 | 0.03 | 0.20 | 21 | 0.200 | Cc1ccc(C(=O)Nc2ccc(CN3CCN(C)CC3)c(C(F)(F)F)c2)cc1C#Cc1c[nH]c2ncnc(N3CCOCC3)c12 [Compound 1] | 
2 | 1.25 | 7.00 | 6.81 | 1.55 | 7.20 | -0.20 | 9.06 | 3.15 | 2.10 | 7.33 | -0.94 | 10.56 | 0.75 | 1.95 | 0.65 | 7.19 | -1.00 | 0.28 | 28 | 0.280 | O=C(Nc1ccc(F)cc1)C1(C(=O)Nc2cccc(-c3c[nH]c4ncnc(N5CCOCC5)c34)c2)CC1 [Compound 2] | 
3 | 0.57 | 5.01 | 6.49 | 1.98 | 6.45 | -0.49 | 9.53 | 2.86 | 2.61 | 9.51 | 0.41 | 9.86 | 1.12 | 4.19 | -0.17 | 3.28 | -1.99 | 0.33 | 33 | 0.330 | O=C(Nc1cccc(-c2c[nH]c3ncnc(N4CCOCC4)c23)c1)c1cccn(-c2ccc(F)cc2)c1=O [Compound 4] | 
4 | 3.01 | 3.25 | 0.00 | -0.63 | 4.17 | 0.01 | 4.67 | 0.98 | 2.49 | 6.70 | 1.05 | 7.72 | 0.70 | 1.36 | -0.13 | -0.29 | 0.73 | 0.13 | 13 | 0.125 | Cc1cc(NC(=O)C2(C(=O)Nc3ccc(F)cc3)CC2)cc(-c2c[nH]c3ncnc(N4CCOCC4)c23)c1 [Compound 6] | 
5 | 2.70 | 3.33 | 0.00 | 0.42 | 4.12 | 1.31 | 7.29 | 1.62 | 0.40 | 4.65 | 0.61 | 6.49 | 0.56 | 1.05 | -0.39 | -2.04 | 1.00 | 0.15 | 16 | 0.154 | O=C(Nc1cccc(-c2c[nH]c3ncnc(N4CCOCC4)c23)c1)C1(C(=O)Nc2cccc3c2CCC3)CC1 [Compound 11] | 
6 | 0.95 | 6.20 | 7.92 | 1.28 | 6.39 | 0.22 | 9.52 | 2.26 | 1.72 | 6.83 | 0.88 | 7.66 | 0.69 | 2.09 | 0.16 | 3.58 | -0.35 | 0.26 | 26 | 0.260 | O=C(Nc1ccccc1)C1(C(=O)Nc2cccc(-c3c[nH]c4ncnc(N5CCOCC5)c34)c2)CC1 [Compound 12] | 

Row | Structure (SMILES) | dTm [1] [K] | dTm [2] [K] | dTm [3] [K] | dTm [4] [K] | dTm [5] [K] | dTm [6] [K] | dTm [7] [K] | dTm [8] [K] | dTm [9] [K] | dTm [10] [K] | dTm [11] [K] | dTm [12] [K] | dTm [13] [K] | dTm [14] [K] | dTm [15] [K] | dTm [16] [K] | dTm [17] [K] | S(5K) [17, 18] | # >5K [17, 19] | S(5K) [17, 20] | also measured
7 | Cc1ccc(C(=O)Nc2ccc(CN3CCN(C)CC3)c(C(F)(F)F)c2)cc1C#Cc1cnc2[nH]ncc2c1 [GZD-824, reference compound] | 0.30 | 0.50 | -1.15 | 0.93 |  | 0.87 | 7.80 | 4.75 | 15.22 | 7.78 | 0.45 | 13.60 | 0.0366 | 4.29 | -0.88 | 10.01 | -0.37 |  |  |  | # >5K [17]: 31; S(5K) [17]: 0.313
8 | Cc1ccc(C(=O)Nc2ccc(CN3CCN(C)CC3)c(C(F)(F)F)c2)cc1C#Cc1cnc2cccnn12 [Ponatinib, reference compound] |  |  | -1.68 |  |  |  |  |  |  |  |  |  |  |  |  |  |  |  |  |  | # >5K [17]: 28; S(5K) [17]: 0.272
9 | CNC(=O)c1cc(Oc2ccc(NC(=O)Nc3cc(C(C)(C)C)nn3-c3ccc4ncccc4c3)c(F)c2)ccn1 [Rebastinib, reference compound] | 3.67 | 5.73 | 6.81 | 1.75 | 7.16 | 0.54 | 15.99 | 8.68 | 15.87 | 9.02 | 6.29 | 14.66 | 0.52 | 1.13 | -0.41 |  |  |  |  |  | 
10 | CN[C@@H]1C[C@H]2O[C@@](C)([C@@H]1OC)n1c3ccccc3c3c4c(c5c6ccccc6n2c5c31)C(=O)NC4 [Staurosporine] | 12.74 |  |  | 8.41 |  |  |  |  | 6.68 | 16.47 | 16.71 | 7.17 |  | 9.01 |  |  |  |  |  |  | 
